In patent EP3046573B1, “AMYLIN ANALOGUES” (Zealand Pharma A/S, priority 2013, dated 2015):
pEC50: −log10 of the molar value. Read-outs that look alike come from different tables or passages of the source. Numbered stars: 1 amine (or outer) side, 2 acyl side, 3 side chain; on linkers, the order of the positions; unused ones are H or OH. Bridge positions count the residues as written; N and C are the ends. Square brackets hold non-standard residues; d marks the D form. Peptide text beside a SMILES is read from it. * marks the point of attachment. C20 diacid = O=C(O)CCCCCCCCCCCCCCCCCCC(=O)*; γGlu = O=C(O)[C@H](CCC(=O)[*:2])N[*:1]; NMeI = CC[C@H](C)[C@H](NC)C(=O)O; Myristoyl = CCCCCCCCCCCCCC(=O)*; Sar = CNCC(=O)O

Columns and labels:
[1] = Solubility assessment (turbidity absorbance at 325 nm); format: physicochemical; conditions: stock 2 mg/ml diluted 1:1, ambient temperature (typically 25°C), n=1; for Solubility, Acetate buffer pH 4: 100 mM acetate buffer pH 4.0; for Solubility, Acetate buffer pH 5: 100 mM acetate buffer pH 5.0; for Solubility, Histidine buffer pH 6: 100 mM histidine buffer pH 6.0; for Solubility, Histidine buffer pH 7: 100 mM histidine buffer pH 7.0; for Solubility, Phosphate buffer pH 6: 100 mM phosphate buffer pH 6.0; for Solubility, Phosphate buffer pH 7: 100 mM phosphate buffer pH 7.0; for Solubility, Phosphate buffer pH 7.5: 100 mM phosphate buffer pH7.5
Summary of the method: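 Turbidity read as absorbance at 325 nm (also 280 nm), single samples at ambient temperature (typically 25°C); ≤ 0.02 units counts as ≥ 1 mg/ml soluble. Samples made by 1:1 dilution of a 2 mg/ml acidic stock into 100 mM acetate, histidine or phosphate buffers, pH 4.0–7.5.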

[2] = target: T1, human calcitonin receptor (hCTR2) (Homo sapiens, UniProt P30988); assay: hCTR2 assay: induction of cAMP (AlphaScreen cAMP Assay kit) in COS7 cells expressing hCTR2; format: cell-based
T1 construct: expressed in transfected cells
T1 sequence (P30988 25-474): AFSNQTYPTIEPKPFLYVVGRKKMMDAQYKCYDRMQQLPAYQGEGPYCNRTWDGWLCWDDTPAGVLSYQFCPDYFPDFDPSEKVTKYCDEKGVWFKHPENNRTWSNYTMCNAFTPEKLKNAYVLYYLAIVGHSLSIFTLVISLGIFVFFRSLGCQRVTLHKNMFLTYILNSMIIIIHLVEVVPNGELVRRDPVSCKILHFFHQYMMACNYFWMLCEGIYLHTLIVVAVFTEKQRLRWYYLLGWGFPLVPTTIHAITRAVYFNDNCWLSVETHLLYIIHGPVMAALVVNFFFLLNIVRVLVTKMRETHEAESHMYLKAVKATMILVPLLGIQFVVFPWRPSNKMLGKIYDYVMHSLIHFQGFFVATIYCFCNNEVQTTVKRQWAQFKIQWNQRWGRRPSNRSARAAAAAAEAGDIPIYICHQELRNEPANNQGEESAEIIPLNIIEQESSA
Summary of the method: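 cAMP induction was measured by AlphaScreen in COS7 cells stably expressing hCTR2 without RAMPs, after 15 min at 37° C with increasing peptide concentrations, 100 µM IBMX and 0.1% casein (Tyrode, pH 7.4). A 4-parameter logistic fit gave EC50 and % efficacy versus pramlintide.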

Compound | Solubility, Acetate buffer pH 4 [1] | Solubility, Acetate buffer pH 5 [1] | Solubility, Histidine buffer pH 6 [1] | Solubility, Histidine buffer pH 7 [1] | Solubility, Phosphate buffer pH 6 [1] | Solubility, Phosphate buffer pH 7 [1] | Solubility, Phosphate buffer pH 7.5 [1] | pEC50 [2] | pEC50 ([2]; cAMP induction in COS7 cells expressing hCTR2, average of a minimum of 3 determinations, read-out: hCTR2 EC50)
CCCCCCCCCCCCCC(=O)N[C@@H](CCC(=O)N[C@@H](CCCNC(=N)N)C(=O)N[C@H]1CSSC[C@@H](C(=O)N[C@@H](C)C(=O)N[C@H](C(=O)N[C@@H](CCC(N)=O)C(=O)N[C@@H](CCCNC(=N)N)C(=O)N[C@@H](CC(C)C)C(=O)N[C@@H](C)C(=O)N[C@@H](CCC(=O)O)C(=O)N[C@@H](Cc2ccccc2)C(=O)N[C@@H](CC(C)C)C(=O)N[C@@H](Cc2c[nH]cn2)C(=O)N[C@@H](CCCNC(=N)N)C(=O)N[C@@H](CO)C(=O)N[C@@H](CO)C(=O)N[C@@H](CC(N)=O)C(=O)N[C@@H](CC(N)=O)C(=O)N[C@@H](Cc2ccccc2)C(=O)N(C)CC(=O)N[C@@H](C)C(=O)N(C)[C@H](C(=O)N[C@@H](CC(C)C)C(=O)N[C@@H](CO)C(=O)N[C@@H](CO)C(=O)N[C@H](C(=O)N[C@@H](CC(N)=O)C(=O)N[C@H](C(=O)NCC(=O)N[C@@H](CO)C(=O)N[C@@H](CC(N)=O)C(=O)N[C@H](C(=O)N2CCC[C@H]2C(N)=O)[C@@H](C)O)C(C)C)[C@@H](C)O)[C@@H](C)CC)[C@@H](C)O)NC(=O)[C@H]([C@@H](C)O)NC(=O)[C@H](C)NC(=O)[C@H]([C@@H](C)O)NC(=O)[C@H](CC(N)=O)NC1=O)C(=O)O [Compound 91, [Tetradecanoyl]-isoGlu-RC()NTATC()ATQRLAEFLHRSSNNF-Gly(Me)-A-Ile(Me)-LSSTNVGSNTP-NH2] ({Myristoyl-γGlu}-RCNTATCATQRLAEFLHRSSNNF[Sar]A[NMeI]LSSTNVGSNTP-NH2; disulfide 2-7) | SS (SS indicates solubility ≥ 1mg/ml) | SS (SS indicates solubility ≥ 1mg/ml) | SS (SS indicates solubility ≥ 1mg/ml) | SS (SS indicates solubility ≥ 1mg/ml) | SS (SS indicates solubility ≥ 1mg/ml) | SS (SS indicates solubility ≥ 1mg/ml) | SS (SS indicates solubility ≥ 1mg/ml) | 10.33 | 
CC[C@H](C)[C@@H](C(=O)N[C@@H](CC(C)C)C(=O)N[C@@H](CO)C(=O)N[C@@H](CO)C(=O)N[C@H](C(=O)N[C@@H](CC(N)=O)C(=O)N[C@H](C(=O)NCC(=O)N[C@@H](CO)C(=O)N[C@@H](CC(N)=O)C(=O)N[C@H](C(=O)N1CCC[C@H]1C(N)=O)[C@@H](C)O)C(C)C)[C@@H](C)O)N(C)C(=O)CN(C)C(=O)[C@H](Cc1ccccc1)NC(=O)[C@H](CC(N)=O)NC(=O)[C@H](CC(N)=O)NC(=O)[C@H](CO)NC(=O)[C@H](CO)NC(=O)[C@H](Cc1c[nH]cn1)NC(=O)[C@H](Cc1c[nH]cn1)NC(=O)[C@H](CC(C)C)NC(=O)[C@H](Cc1ccccc1)NC(=O)[C@H](CCC(=O)O)NC(=O)[C@H](C)NC(=O)[C@H](CC(C)C)NC(=O)[C@H](CCCNC(=N)N)NC(=O)[C@H](CCC(N)=O)NC(=O)[C@@H](NC(=O)[C@H](C)NC(=O)[C@@H]1CSSC[C@H](NC(=O)[C@H](CCCCN)NC(=O)CC[C@H](NC(=O)CCCCCCCCCCCCCCCCCCC(=O)O)C(=O)O)C(=O)N[C@@H](CC(N)=O)C(=O)N[C@@H]([C@@H](C)O)C(=O)N[C@@H](C)C(=O)N[C@@H]([C@@H](C)O)C(=O)N1)[C@@H](C)O [Compound 20, [19CD]-isoGlu-KC()NTATC()ATQRLAEFLHHSSNNF-Gly(Me)-Ile(Me)-LSSTNVGSNTP-NH2] ({C20 diacid-γGlu}-KCNTATCATQRLAEFLHHSSNNF[Sar][NMeI]LSSTNVGSNTP-NH2; disulfide 2-7) | SS (SS indicates solubility ≥ 1mg/ml) | SS (SS indicates solubility ≥ 1mg/ml) | SS (SS indicates solubility ≥ 1mg/ml) | SS (SS indicates solubility ≥ 1mg/ml) | SS (SS indicates solubility ≥ 1mg/ml) | SS (SS indicates solubility ≥ 1mg/ml) | SS (SS indicates solubility ≥ 1mg/ml) |  | 10.03
CC[C@H](C)[C@@H](C(=O)N[C@@H](CC(C)C)C(=O)N[C@@H](CO)C(=O)N[C@H](C(=O)N[C@@H](CC(N)=O)C(=O)N[C@H](C(=O)NCC(=O)N[C@@H](CO)C(=O)N[C@@H](CC(N)=O)C(=O)N[C@H](C(=O)N1CCC[C@H]1C(N)=O)[C@@H](C)O)C(C)C)[C@@H](C)O)N(C)C(=O)[C@H](C)NC(=O)CN(C)C(=O)[C@H](Cc1ccccc1)NC(=O)[C@H](CC(N)=O)NC(=O)[C@H](CC(N)=O)NC(=O)[C@H](CO)NC(=O)[C@H](CO)NC(=O)[C@H](Cc1c[nH]cn1)NC(=O)[C@H](Cc1c[nH]cn1)NC(=O)[C@H](CC(C)C)NC(=O)[C@H](Cc1ccccc1)NC(=O)[C@H](CCC(=O)O)NC(=O)[C@H](C)NC(=O)[C@H](CC(C)C)NC(=O)[C@H](CCCNC(=N)N)NC(=O)[C@H](CCC(N)=O)NC(=O)[C@@H](NC(=O)[C@H](C)NC(=O)[C@@H]1CSSC[C@H](NC(=O)[C@H](CCCNC(=N)N)NC(=O)CC[C@H](NC(=O)CCCCCCCCCCCCCCCCCCC(=O)O)C(=O)O)C(=O)N[C@@H](CC(N)=O)C(=O)N[C@@H]([C@@H](C)O)C(=O)N[C@@H](C)C(=O)N[C@@H]([C@@H](C)O)C(=O)N1)[C@@H](C)O [Compound 25, [19CD]-isoGlu-RC()NTATC()ATQRLAEFLHHSSNNF-Gly(Me)-A-Ile(Me)-LSTNVGSNTP-NH2] ({C20 diacid-γGlu}-RCNTATCATQRLAEFLHHSSNNF[Sar]A[NMeI]LSTNVGSNTP-NH2; disulfide 2-7) | SS (SS indicates solubility ≥ 1mg/ml) | SS (SS indicates solubility ≥ 1mg/ml) | SS (SS indicates solubility ≥ 1mg/ml) | SS (SS indicates solubility ≥ 1mg/ml) | SS (SS indicates solubility ≥ 1mg/ml) | SS (SS indicates solubility ≥ 1mg/ml) | SS (SS indicates solubility ≥ 1mg/ml) | 10.00 | 
